The source of these data is paper PMC4514850, “A Novel TGR5 Activator WB403 Promotes GLP-1 Secretion and Preserves Pancreatic β-Cells in Type 2 Diabetic Mice” (PLoS ONE, 2015).

For one assay, the target named is T1, hTGR5 (Homo sapiens, UniProt Q8TDU6).
T1 construct: expressed in transfected cells; host or cells: 293T cells, transient transfection with pTGR5 (gift from Prof. Johan Auwerx)
T1 sequence (Q8TDU6 1-330): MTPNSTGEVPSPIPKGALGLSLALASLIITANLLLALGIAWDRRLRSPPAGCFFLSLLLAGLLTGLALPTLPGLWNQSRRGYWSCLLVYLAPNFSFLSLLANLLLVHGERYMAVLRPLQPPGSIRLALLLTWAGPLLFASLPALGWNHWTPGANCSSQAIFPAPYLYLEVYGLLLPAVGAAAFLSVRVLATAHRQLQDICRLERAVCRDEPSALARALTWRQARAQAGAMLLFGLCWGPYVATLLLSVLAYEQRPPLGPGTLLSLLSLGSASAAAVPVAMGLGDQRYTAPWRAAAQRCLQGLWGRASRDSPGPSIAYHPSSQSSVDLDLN
Briefly: TGR5-dependent cAMP accumulation (ELISA) in transfected 293T cells. It is filed as cell-based. As to the method:
For human TGR5 luciferase (luc) assay, 293T cells were co-transfected with pCRE-luc, pTGR5 (kind gift from Prof. Johan Auwerx, Ecole Polytechnique Fédérale de Lausanne, Lausanne, Switzerland) and pRenilla (Promega, USA). WB403 was added 5 h later. Cells were harvested after 16 h and subjected to luciferase analysis on Lumistar Optima chemiluminescent detector (BMG labtech, Germany). For cAMP testing, 293T cells transiently transfected with pTGR5 or pGPR119 (GeneCopoeia, USA) were washed by FBS-free DMEM, and stimulated with WB403 in FBS-free DMEM containing 3-isobutyl-1-methyl-xanthine (IBMX, Sigma). Cell lysates were collected 30 min later and used for cAMP ELISA assay. FLIPR Calcium 5 assay kit (Molecular Devices, USA) was used for calcium mobilization assay. […] Increase of the intracellular Ca^2+ concentration was monitored by Flexstation 3 system (Molecular Devices, USA).
The GLP-1 (active) ELISA kit was purchased from Millipore, and insulin ELISA kit was from Mercodia. For quantitative determination of cAMP, a competitive enzyme immunoassay kit from R&D system was used. […]
Fig 1 WB403 activated TGR5 and promoted active GLP-1 secretion. […] Gallbladders (GB) were removed 30 min later and volumes measured then normalized to body weight (B.W.). n = 10. **p<0.01 vs. vehicle group. […]

For the next assay, the target named is T2, hGPR120 (Homo sapiens, UniProt Q5NUL3).
T2 construct: expressed in transfected cells; host or cells: 293 cells, transient transfection with a human GPR120 expression vector
T2 sequence (Q5NUL3 1-361): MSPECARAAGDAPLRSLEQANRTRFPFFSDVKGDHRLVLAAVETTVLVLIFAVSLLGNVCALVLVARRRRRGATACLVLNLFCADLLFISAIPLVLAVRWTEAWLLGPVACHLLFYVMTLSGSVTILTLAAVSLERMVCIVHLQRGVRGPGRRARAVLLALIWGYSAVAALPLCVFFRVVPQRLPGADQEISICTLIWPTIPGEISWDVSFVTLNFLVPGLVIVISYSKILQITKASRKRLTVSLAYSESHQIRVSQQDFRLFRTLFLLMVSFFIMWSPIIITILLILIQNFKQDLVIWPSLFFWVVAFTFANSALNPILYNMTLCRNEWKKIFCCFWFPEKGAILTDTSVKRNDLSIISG
Briefly: GPR120-dependent calcium mobilization in transfected 293 cells. As to conditions: 10 or 100 μmol/l. It counts as cell-based. As to the method:
For human TGR5 luciferase (luc) assay, 293T cells were co-transfected with pCRE-luc, pTGR5 (kind gift from Prof. Johan Auwerx, Ecole Polytechnique Fédérale de Lausanne, Lausanne, Switzerland) and pRenilla (Promega, USA). WB403 was added 5 h later. Cells were harvested after 16 h and subjected to luciferase analysis on Lumistar Optima chemiluminescent detector (BMG labtech, Germany). For cAMP testing, 293T cells transiently transfected with pTGR5 or pGPR119 (GeneCopoeia, USA) were washed by FBS-free DMEM, and stimulated with WB403 in FBS-free DMEM containing 3-isobutyl-1-methyl-xanthine (IBMX, Sigma). Cell lysates were collected 30 min later and used for cAMP ELISA assay. FLIPR Calcium 5 assay kit (Molecular Devices, USA) was used for calcium mobilization assay. 293-GPR40 stable cells (kindly provided by Prof. Naiming Zhou of Zhejiang University, Hanzhou, China) or 293 cells transient transfected with GPR120 were seeded at 50,000 cells per well in black-walled clear-bottomed 96-well plates (Costar). An equal volume of loading buffer containing Fluo 4-AM was added the following day and cells were incubated for 1 h before stimulated with compounds. Increase of the intracellular Ca^2+ concentration was monitored by Flexstation 3 system (Molecular Devices, USA).
Fig 6 Effect of WB403 on GPCRs related to GLP-1 secretion. (A) GPCR expression in human NCI-H716 and mouse MIN6 cells. […]

Entries after “also recorded” stand apart in the source; their conditions may differ.

Take `CCc1cc(-c2nc(C)c(COCc3ccc(Br)cc3)s2)ccn1` [WB403, 4-(5-((4-bromobenzyloxy)-methyl)-4-methylthiazol-2-yl)-2-ethylpyridine]: at hTGR5 (1–50 μmol/l, 30 min, IBMX, Fig 1B), the “Gs-coupled cAMP accumulation through TGR5” value is recorded as “dose-dependently stimulate”. For the same molecule, the “cAMP activity in control 293T cells” value on hTGR5 (control 293T cells transfected with an empty plasmid) was “no stimulation”. Besides, the “hGPR120-Ca2+ activation (calcium mobilization)” value at hGPR120 was “neither did it exhibit significant effect; also recorded: no significant effect”.
